Assay results published in US20230255953A1, “USE OF ROLUPERIDONE IN PREVENTING RELAPSE IN SCHIZOPHRENIA PATIENTS” (Minerva Neurosciences, Inc., priority 2022, published 2023).

Test system: patients with negative symptoms of schizophrenia
Experiment: Integrated analysis of Studies #1 and #2 (pooled ITT): PANSS-derived scores (NSFS, total, positive and negative subscales), DB, OL and whole study
Assay type: in vivo, human
Set-up: key to NSFS Score change from Baseline, Median: change from Baseline in PANSS NSFS points; higher score = more severe
Method: The primary integrated analysis of the efficacy of Roluperidone compared with placebo for the treatment of negative symptoms of schizophrenia is based on the change from Baseline in the PANSS Marder's negative symptoms factor score (in this document referred to as NSFS) to Week 12. Efficacy is also supported by the analysis of change from Baseline in the PSP Total score and the CGI-S to Week 12.
The PANSS was assessed at the time points described in Table 4.
The PANSS-derived endpoints used in these studies and the integrated analyses are described in Table 5A and a summary of the individual PANSS items used by physicians and clinicians to measure the severity of the symptoms in a schizophrenia patient is provided in Table 5B. The scale is divided into three parts, a positive scale, which provides a “PANSS positive subscore”, a negative scale, which provides a “PANSS negative subscore”, and general psychopathology scale. The sum of these three parts provides a PANSS total score, which ranges from 30 to 210 (where higher scores indicate more severe symptoms). (See Kay, S. R., et al. “The positive and negative syndrome scale (PANSS) for schizophrenia,” Schizophr Bulletin, 13(2), 261-276 (1987) and Gopal, S., et al. “Improvement of Negative Symptoms in Schizophrenia with Paliperidone Palmitate 1-Month and 3-Month Long-Acting Injectables: Results from a Phase 3 Non-Inferiority Study” Neuropsychiatric Disease and Treatment, 681-690, DOI: 10.2147/NDT.5226296, both of which are incorporated by reference.)
The Efficacy data from Study Nos. 1 and 2 were pooled. The majority of patients in the pooled ITT population completed the DB period (502 patients overall, 66.3%), with similar rates in each treatment group (placebo: 69.8%, 32 mg Roluperidone: 65.3%, and 64 mg Roluperidone: 63.8%) (Table 12). The majority (62.7%) of those who completed the DB period entered the OL period. The most common reason for discontinuation during the DB period among patients overall was withdrawal of consent (15.6%), followed by adverse events (7.3%) and lack of efficacy (5.4%) (Table 12). […] Approximately twice as many patients in the Roluperidone groups (32 mg: 8.5%; 64 mg: 9.1%) discontinued due to adverse events compared with patients in the placebo group (4.3%). More patients in the placebo group discontinued due to lack of efficacy (6.7%) than in the Roluperidone groups (32 mg: 4.4%; 64 mg: 5.1%). The low number of patients who discontinued due to lack of efficacy or withdrawal of consent probably reflects a low level of worsening of positive symptoms.
The integrated analysis supporting the efficacy of Roluperidone as a treatment for the negative symptoms of schizophrenia in adults is presented below.

[1] = Placebo in DB to Roluperidone 32 mg in OL, pooled ITT
[2] = Placebo in DB to Roluperidone 64 mg in OL, pooled ITT
[3] = Placebo in DB to Roluperidone in OL, Total, pooled ITT
[4] = Roluperidone Total, Week 2, DB, pooled ITT
[5] = Roluperidone Total, Week 2, pooled ITT

1H-Isoindol-1-one,2-[ [1-[2-(4-fluorophenyl)-2-oxoethyl]-4-piperidinyl]methyl]-2,3-dihydro-, hydrochloride, hydrate (1:1:2) [Roluperidone]
Patients with moderate improvement in NSFS (magnitude of change 6-8) (64 mg, Week 12, pooled): 19%
Patients with moderate or high improvement in NSFS, total (64 mg, Week 12, pooled): 32%
NSFS, LS mean decrease from Baseline compared with placebo (64 mg, Week 12, pooled ITT): −3.9
PANSS Positive Subscale Score change from Baseline, LS mean (SE) (64 mg, Week 12, pooled ITT): −0.2 (0.21)
PANSS Positive Subscale Score change from Baseline, Mean (SD) (64 mg, Week 12, pooled ITT): −0.5 (2.88)
PANSS Positive Subscale Score change from Baseline, Median (64 mg, Week 12, pooled ITT): 0.0
PANSS Positive Subscale Score, Difference (95% CI) in LS mean (vs placebo) (64 mg, Week 12, pooled ITT): −0.4
PANSS negative subscale score, LS mean change from Baseline compared with placebo (64 mg, Week 12, pooled ITT): −1.3
PANSS positive subscale score, LS mean change from Baseline compared with placebo (64 mg, Week 12, pooled ITT): −0.4
PANSS total score, LS mean change from Baseline compared with placebo (64 mg, Week 12, pooled ITT): −2.8
Patients with 20% Reduction in NSFS at Week 12, percent (64 mg, responder analysis): 39%
Patients with 20% Reduction in PANSS Total Score at Week 12, percent (64 mg, responder analysis): 19%
Number of Patients with 20% Reduction in PANSS Total Score at Week 12 (64 mg, responder analysis, n/N): 34/176
Number of Patients with 20% reduction in NSFS at Week 12 (64 mg, responder analysis, n/N): 68/176
NSFS Change from Active BL to Week 24, Mean (SD) [1]: −2.1 (2.56)
NSFS Change from Active BL to Week 24, Median [1]: −2.0
NSFS Change from Active BL to Week 52, Mean (SD) [1]: −4.5 (3.60)
NSFS Change from Active BL to Week 52, Median [1]: −4.0
NSFS Change from Active BL to Week 54, Mean (SD) [1]: −4.7 (3.60)
NSFS Change from Active BL to Week 54, Median [1]: −4.0
NSFS Change from Open-label BL to Week 24, Mean (SD) [1]: −2.1 (2.56)
NSFS Change from Open-label BL to Week 24, Median [1]: −2.0
NSFS Change from Open-label BL to Week 52, Mean (SD) [1]: −4.5 (3.60)
NSFS Change from Open-label BL to Week 52, Median [1]: −4.0
NSFS Change from Open-label BL to Week 54, Mean (SD) [1]: −4.7 (3.60)
NSFS Change from Open-label BL to Week 54, Median [1]: −4.0
NSFS Change from Study BL to Week 24, Mean (SD) [1]: −5.3 (3.72)
NSFS Change from Study BL to Week 24, Median [1]: −5.0
NSFS Change from Study BL to Week 52, Mean (SD) [1]: −7.9 (3.69)
NSFS Change from Study BL to Week 52, Median [1]: −8.0
NSFS Change from Study BL to Week 54, Mean (SD) [1]: −7.9 (4.29)
NSFS Change from Study BL to Week 54, Median [1]: −7.0
NSFS Change from Active BL to Week 24, Mean (SD) [2]: −1.8 (3.55)
NSFS Change from Active BL to Week 24, Median [2]: −2.0
NSFS Change from Active BL to Week 52, Mean (SD) [2]: −4.9 (4.72)
NSFS Change from Active BL to Week 52, Median [2]: −6.0
NSFS Change from Active BL to Week 54, Mean (SD) [2]: −4.2 (4.78)
NSFS Change from Active BL to Week 54, Median [2]: −5.0
NSFS Change from Open-label BL to Week 24, Mean (SD) [2]: −1.8 (3.55)
NSFS Change from Open-label BL to Week 24, Median [2]: −2.0
NSFS Change from Open-label BL to Week 52, Mean (SD) [2]: −4.9 (4.72)
NSFS Change from Open-label BL to Week 52, Median [2]: −6.0
NSFS Change from Open-label BL to Week 54, Mean (SD) [2]: −4.2 (4.78)
NSFS Change from Open-label BL to Week 54, Median [2]: −5.0
NSFS Change from Study BL to Week 24, Mean (SD) [2]: −4.2 (3.38)
NSFS Change from Study BL to Week 24, Median [2]: −4.0
NSFS Change from Study BL to Week 52, Mean (SD) [2]: −7.0 (3.76)
NSFS Change from Study BL to Week 52, Median [2]: −7.5
NSFS Change from Study BL to Week 54, Mean (SD) [2]: −6.6 (4.15)
NSFS Change from Study BL to Week 54, Median [2]: −7.0
NSFS Change from Active BL to Week 24, Mean (SD) [3]: −1.9 (3.06)
NSFS Change from Active BL to Week 24, Median [3]: −2.0
NSFS Change from Active BL to Week 52, Mean (SD) [3]: −4.7 (4.17)
NSFS Change from Active BL to Week 52, Median [3]: −5.0
NSFS Change from Active BL to Week 54, Mean (SD) [3]: −4.4 (4.18)
NSFS Change from Active BL to Week 54, Median [3]: −5.0
NSFS Change from Open-label BL to Week 24, Mean (SD) [3]: −1.9 (3.06)
NSFS Change from Open-label BL to Week 24, Median [3]: −2.0
NSFS Change from Open-label BL to Week 52, Mean (SD) [3]: −4.7 (4.17)
NSFS Change from Open-label BL to Week 52, Median [3]: −5.0
NSFS Change from Open-label BL to Week 54, Mean (SD) [3]: −4.4 (4.18)
NSFS Change from Open-label BL to Week 54, Median [3]: −5.0
NSFS Change from Study BL to Week 24, Mean (SD) [3]: −4.8 (3.60)
NSFS Change from Study BL to Week 24, Median [3]: −4.0
NSFS Change from Study BL to Week 52, Mean (SD) [3]: −7.5 (3.72)
NSFS Change from Study BL to Week 52, Median [3]: −8.0
NSFS Change from Study BL to Week 54, Mean (SD) [3]: −7.3 (4.25)
NSFS Change from Study BL to Week 54, Median [3]: −7.0
NSFS Score change from Baseline, Mean (SD) [4]: −1.3 (2.25)
NSFS Score change from Baseline, Median [4]: −1.0
PANSS Negative Subscale Score change from Baseline, Mean (SD) [4]: −1.3 (2.20)
PANSS Negative Subscale Score change from Baseline, Median [4]: −1.0
PANSS Total Score change from Baseline, Mean (SD) [4]: −2.0 (6.89)
PANSS Total Score change from Baseline, Median [4]: −2.0
PANSS Positive Subscale Score change from Baseline, Mean (SD) [5]: 0.1 (2.78)
PANSS Positive Subscale Score change from Baseline, Median [5]: 0.0
NSFS Score change from Baseline, Mean (SD) (Roluperidone Total, Week 4, DB, pooled ITT): −2.4 (2.64)
